# Measured values as given in patent US5760285A, “Phosphonyldipeptides useful in the treatment of cardiovascular diseases” (priority 1994, dated 1998).
# Columns and labels:
# NEP = target: T1, NEP (Rattus norvegicus, UniProt P07861); test: "In vitro" NEP-inhibitory activity (rat kidney cortex membranes, [3H][Leu5]-enkephaline); type: biochemical; conditions: membranes from rat kidney cortex
# T1 construct: Membranes from kidney cortex were prepared according to the following procedure; from tissue; host or cells: rat kidney cortex membranes
# T1 sequence (P07861 1-750): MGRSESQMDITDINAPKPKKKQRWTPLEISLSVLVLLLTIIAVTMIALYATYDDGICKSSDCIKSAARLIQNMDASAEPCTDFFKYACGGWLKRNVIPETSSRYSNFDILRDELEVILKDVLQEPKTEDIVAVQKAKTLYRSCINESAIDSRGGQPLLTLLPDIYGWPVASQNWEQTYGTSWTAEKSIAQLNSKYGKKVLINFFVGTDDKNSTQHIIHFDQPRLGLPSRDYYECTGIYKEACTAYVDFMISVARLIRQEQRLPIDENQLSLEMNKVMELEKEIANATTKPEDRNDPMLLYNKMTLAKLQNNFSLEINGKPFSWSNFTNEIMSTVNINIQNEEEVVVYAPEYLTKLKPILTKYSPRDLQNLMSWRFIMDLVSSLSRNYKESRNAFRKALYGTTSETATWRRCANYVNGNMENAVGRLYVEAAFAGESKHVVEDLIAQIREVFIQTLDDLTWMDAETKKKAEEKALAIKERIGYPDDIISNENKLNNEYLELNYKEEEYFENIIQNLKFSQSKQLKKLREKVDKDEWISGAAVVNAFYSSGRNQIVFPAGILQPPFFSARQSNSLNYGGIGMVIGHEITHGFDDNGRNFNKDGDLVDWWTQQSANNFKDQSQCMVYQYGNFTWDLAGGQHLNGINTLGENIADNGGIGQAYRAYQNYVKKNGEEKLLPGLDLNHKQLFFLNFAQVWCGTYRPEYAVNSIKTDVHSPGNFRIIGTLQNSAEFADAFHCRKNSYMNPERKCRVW
# Procedure: a) NEP-inhibitory activity
# Membranes from kidney cortex were prepared according to the following procedure.
# Cortex was carefully dissected, finely minced and suspended in a homogenization buffer (10 mM sodium phosphate pH 7.4 containing 1 mM MgCl2, 30 mM NaCl, 0.02% NaN3) 1:15 weight/volume.
# The tissue was then homogenized for 30 seconds using an Ultra-Turrax homogenizer.
# The membranes were collected from the buffer/sucrose interface, washed twice with 50 mM TRIS/HCl buffer (pH 7.4) and resuspended into the same buffer for storage.
# The membranes were stored in small aliquots at -80° C. until use.
# The NEP-inhibitory activity was evaluated by using the following method.
# Incubation (20 minutes at 30° C.) was stopped by adding HCl 0.1M (100 μl).
# ACE = target: T2, ACE (Oryctolagus cuniculus, UniProt P12822); test: "In vitro" ACE-inhibitory activity (FAPGG substrate); type: biochemical; conditions: ACE purified by lung rabbit; tested as lithium salts
# T2 construct: ACE (250 mU/ml purified by lung rabbit, EC 3.4.15.1 SIGMA); purchased SIGMA; host or cells: rabbit lung
# T2 sequence (P12822 34-1310): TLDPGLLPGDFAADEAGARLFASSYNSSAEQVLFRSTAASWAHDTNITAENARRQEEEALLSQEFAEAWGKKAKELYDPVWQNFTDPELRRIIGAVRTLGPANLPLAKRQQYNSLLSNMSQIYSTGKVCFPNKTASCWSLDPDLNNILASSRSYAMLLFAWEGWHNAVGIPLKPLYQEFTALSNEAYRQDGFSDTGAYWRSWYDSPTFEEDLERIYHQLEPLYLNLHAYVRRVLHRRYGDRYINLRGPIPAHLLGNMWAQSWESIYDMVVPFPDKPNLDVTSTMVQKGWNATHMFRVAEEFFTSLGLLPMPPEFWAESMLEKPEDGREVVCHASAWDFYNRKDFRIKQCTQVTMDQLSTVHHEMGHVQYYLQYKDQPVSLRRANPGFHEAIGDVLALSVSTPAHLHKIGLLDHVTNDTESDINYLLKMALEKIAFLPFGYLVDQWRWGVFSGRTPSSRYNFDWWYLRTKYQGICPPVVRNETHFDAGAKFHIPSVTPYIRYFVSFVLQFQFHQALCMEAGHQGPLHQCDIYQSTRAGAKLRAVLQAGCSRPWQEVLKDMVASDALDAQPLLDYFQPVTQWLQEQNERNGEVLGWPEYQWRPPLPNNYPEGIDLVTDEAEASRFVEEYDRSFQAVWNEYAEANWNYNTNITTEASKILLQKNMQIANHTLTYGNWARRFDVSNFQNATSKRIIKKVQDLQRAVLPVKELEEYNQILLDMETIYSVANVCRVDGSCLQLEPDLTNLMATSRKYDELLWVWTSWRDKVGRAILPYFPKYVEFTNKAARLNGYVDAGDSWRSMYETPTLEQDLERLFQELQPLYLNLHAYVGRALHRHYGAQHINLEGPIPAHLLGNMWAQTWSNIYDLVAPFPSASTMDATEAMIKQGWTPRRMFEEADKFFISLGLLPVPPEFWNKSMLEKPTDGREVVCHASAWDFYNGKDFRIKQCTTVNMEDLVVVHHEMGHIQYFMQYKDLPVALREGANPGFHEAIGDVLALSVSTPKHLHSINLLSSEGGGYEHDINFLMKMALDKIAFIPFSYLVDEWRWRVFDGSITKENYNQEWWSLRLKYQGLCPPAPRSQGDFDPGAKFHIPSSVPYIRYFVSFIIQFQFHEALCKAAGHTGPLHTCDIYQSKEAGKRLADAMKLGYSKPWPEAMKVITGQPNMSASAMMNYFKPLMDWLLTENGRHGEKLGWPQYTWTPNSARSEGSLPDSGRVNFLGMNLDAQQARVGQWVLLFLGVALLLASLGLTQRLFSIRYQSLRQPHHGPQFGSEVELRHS
# Procedure: b) ACE-inhibitory activity
# The reaction was started by adding furylacryloylphenylalanylglycylglycine 0.8 mM (FAPGG-SIGMA).
# Contemporaneously, by using a Beckman DU-50 spectrophotometer provided with a program for calculating delta A/minutes and regression coefficients of the enzyme kinetics curves, the absorbance at 340 nm was recorded in continuo for 5 minutes.
NEP-inhibitory activity IC50 (nM) (NEP; tested as lithium salts),NEP inhibition (NEP; at a concentration corresponding to 10^-8 M) [%],IC50 (ACE) [nM],SMILES
not active,–,–,C[C@H](CS)C(=O)N1CCC[C@H]1C(=O)O [Captopril]
–,42,20,"O=C([O-])[C@H](Cc1ccccc1)NC(=O)[C@H](Cc1ccccc1)NP(=O)(O)CCCCc1ccccc1.O=C([O-])[C@H](Cc1ccccc1)NC(=O)[C@H](Cc1ccccc1)NP(=O)(O)CCCCc1ccccc1.[Li+].[Li+] [Compound R-5, N-[N'-(4-phenyl)butylphosphonyl-L-phenylalanyl]-L-phenylalanine dilithium salt]"
